The text below walks through data of patent publication US20240173419A1, “CDK2 DEGRADERS AND USES THEREOF” (Kymera Therapeutics, Inc., priority 2022, published 2024).

The DC50 is the midpoint of the concentration-degradation curve.

In this assay the target is T1, CDK2 (Homo sapiens, UniProt P24941).
T1 construct: endogenous in cells; host or cells: MKN1 cells
Kind of assay: CDK2 degradation in MKN1 cells (AlphaLISA). It counts as cell-based. Also on record: key to CDK2 degradation 14 h: Mean external-Abs DC50 (nM): A (<100 nM); B (≥100-500 nM); C (>500-1000 nM); D (>1000 nM); E (not achieved). The settings on record: 14 h incubation; for DC50: read-out: CDK2 degradation 14 h: Mean external-Abs DC50. An outline of the steps: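 MKN1 cells (2e4/well) treated 14 h at 37° C with 11-point 1:5 dilutions (0.001 nM-10 μM, 0.1% DMSO). CDK2 in lysates quantified by AlphaLISA, no-cell background subtracted; DC50 from four-parameter logistic fit.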
(In general: In Alpha technology, singlet oxygen from a donor bead excites a nearby acceptor bead.)

Turning to `Cc1cc(S(=O)(=O)N[C@@H]2CCN(CC3CCN(c4ccc(C5CCC(=O)NC5=O)cc4F)CC3)C[C@H]2F)ccc1Nc1ncc(C(F)(F)F)c(N2CCC[C@](C)(O)C2)n1` (some centres unmarked) [I-804], the “CDK2 degradation 14 h: Average Dmax %” value is “A (A (>75% o))” and the DC50 is less than 100 nM.
Turning to `Cc1cc(S(=O)(=O)NC2CCC(CN3CCN(c4cc(F)c(C5CCC(=O)NC5=O)cc4C)CC3)CC2)ccc1Nc1ncc(C(F)(F)F)c(N2CCCC(C)(O)C2)n1` (centres unmarked) [I-806], the “CDK2 degradation 14 h: Average Dmax %” value is given as “A (A (>75% o))” and the DC50 was less than 100 nM.
The matching figures for `Cc1cc(S(=O)(=O)NC2CCC(CN3CCN(c4ccc(C5CCC(=O)NC5=O)cc4Cl)CC3)CC2)ccc1Nc1ncc(C(F)(F)F)c(N2CCCC(C)(O)C2)n1` (centres unmarked) [I-807]: “A (A (>75% o))” and less than 100 nM.
For the compound `Cc1cc(S(=O)(=O)NC2(C)CCN(CC3(F)CCN(c4ccc(C5CCC(=O)NC5=O)cc4)CC3)CC2)ccc1Nc1ncc(C(F)(F)F)c(N2CCC[C@](C)(O)C2)n1` (some centres unmarked) [I-808], the “CDK2 degradation 14 h: Average Dmax %” value is “A (A (>75% o))” and the DC50 was less than 100 nM.
Turning to `Cc1cc(S(=O)(=O)N[C@H]2CC[C@H](CN3CCN(c4ccc(C5CCC(=O)NC5=O)cc4F)C[C@@H]3C)CC2)ccc1Nc1ncc(C(F)(F)F)c(N2CCC[C@](C)(O)C2)n1` (some centres unmarked) [I-810], the “CDK2 degradation 14 h: Average Dmax %” value is recorded as “A (A (>75% o))” and the DC50 was less than 100 nM.
The corresponding values for `Cc1cc(S(=O)(=O)NC2CCC(CN3CCN(c4ccc(C5CCC(=O)NC5=O)cc4C)CC3)CC2)ccc1Nc1ncc(C(F)(F)F)c(N2CCCC(C)(O)C2)n1` (centres unmarked) [I-811] are “A (A (>75% o))” and less than 100 nM.
In the case of `Cc1cc(S(=O)(=O)NC2CCC(CN3CCN(c4ccc(C5CCC(=O)NC5=O)c(C)c4F)CC3)CC2)ccc1Nc1ncc(C(F)(F)F)c(N2CCCC(C)(O)C2)n1` (centres unmarked) [I-812], the “CDK2 degradation 14 h: Average Dmax %” value is listed as “A (A (>75% o))” and the DC50 was less than 100 nM.
Turning to `Cc1cc(S(=O)(=O)NC2CCC(CN3CCN(c4ccc5c(c4F)n(C)c(=O)n5C4CCC(=O)NC4=O)CC3)CC2)ccc1Nc1ncc(C(F)(F)F)c(N2CCCC(C)(O)C2)n1` (centres unmarked) [I-813], the “CDK2 degradation 14 h: Average Dmax %” value is listed as “A (A (>75% o))” and the DC50 is less than 100 nM.
With `Cc1cc(S(=O)(=O)NC2(C)CCC(CN3CCN(c4ccc(C5CCC(=O)NC5=O)cc4F)CC3)CC2)ccc1Nc1ncc(C(F)(F)F)c(N2CCC[C@](C)(O)C2)n1` (some centres unmarked) [I-814], the “CDK2 degradation 14 h: Average Dmax %” value is on record as “A (A (>75% o))” and the 50% degradation concentration (DC50) was less than 100 nM.
The matching figures for `Cc1cc(S(=O)(=O)NC2CCC(F)(CN3CCN(c4ccc(C5CCC(=O)NC5=O)cc4F)CC3)CC2)ccc1Nc1ncc(C(F)(F)F)c(N2CCC[C@](C)(O)C2)n1` (some centres unmarked) [I-815]: “A (A (>75% o))” and less than 100 nM.
Take `COc1cc(N2CCN(CC3CCC(NS(=O)(=O)c4ccc(Nc5ncc(C(F)(F)F)c(N6CCCC(C)(O)C6)n5)c(C)c4)CC3)CC2)c(F)cc1NC1CCC(=O)NC1=O` (centres unmarked) [I-816]: the “CDK2 degradation 14 h: Average Dmax %” value is given as “A (A (>75% o))” and the DC50 is less than 100 nM.
The corresponding values for `O=C1CCC(c2ccc(N3CCN(C[C@H]4CC[C@H](NS(=O)(=O)c5ccc(Nc6ncc(C(F)(F)F)c(-c7cnn(C8CCOCC8)c7)n6)c(F)c5)CC4)CC3)cc2Cl)C(=O)N1` (some centres unmarked) [I-818] are “A (A (>75% o))” and less than 100 nM.
As for `Cc1cc(S(=O)(=O)C2CC3(CCN(CC4CCN(c5cccc6c5n(C)c(=O)n6C5CCC(=O)NC5=O)CC4)CC3)C2)ccc1Nc1ncc(C(F)(F)F)c(N2CCCC(C)(O)C2)n1` (centres unmarked) [I-819], the “CDK2 degradation 14 h: Average Dmax %” value was “B (B (>50% -75%))” and the DC50 is 500 to 1000 nM.
The corresponding values for `Cc1cc(S(=O)(=O)NC2CCC(CN3CCN(c4ccc(NC5CCC(=O)NC5=O)cc4F)CC3)CC2)ccc1Nc1ncc(C(F)(F)F)c(N2CCCC(C)(O)C2)n1` (centres unmarked) [I-822] are “A (A (>75% o))” and less than 100 nM.
`Cc1cc(S(=O)(=O)N2CCC(CN(C)C3CCN(c4cccc5c4n(C)c(=O)n5C4CCC(=O)NC4=O)CC3F)CC2)ccc1Nc1ncc2cc(Cl)c(=O)n(C3CCCC3)c2n1` (centres unmarked) [I-823]: the “CDK2 degradation 14 h: Average Dmax %” value is “A (A (>75% o))” and the DC50 was less than 100 nM.
On to `Cc1cc(S(=O)(=O)N2CC3(CCC(CN4CCN(c5ccc6c(c5F)n(C)c(=O)n6C5CCC(=O)NC5=O)CC4)CC3)C2)ccc1Nc1ncc2cc(Cl)c(=O)n(C3CCCC3)c2n1` (centres unmarked) [I-824], for which the “CDK2 degradation 14 h: Average Dmax %” value was “D (D (<25%))” and the “CDK2 degradation 14 h: Mean external-Abs DC50 (nM)” value is recorded as “E”.
Consider `Cc1cc(S(=O)(=O)C2CC3(CCN(CC4CCN(c5ccc6c(c5F)n(C)c(=O)n6C5CCC(=O)NC5=O)CC4)CC3)C2)ccc1Nc1cc2cnc(Cl)cc2n(C2CCCC2)c1=O` (centres unmarked) [I-825], for which the “CDK2 degradation 14 h: Average Dmax %” value is recorded as “D (D (<25%))” and the DC50 was more than 1000 nM.
As for `Cc1cc(S(=O)(=O)C2CC3(CCN(CCN4CCN(c5ccc6c(c5F)n(C)c(=O)n6C5CCC(=O)NC5=O)CC4)CC3)C2)ccc1Nc1ncc2cc(Cl)c(=O)n(C3CCCC3)c2n1` (centres unmarked) [I-826], the “CDK2 degradation 14 h: Average Dmax %” value is “B (B (>50% -75%))” and the DC50 is less than 100 nM.
For the compound `Cc1cc(S(=O)(=O)N[C@H](C)CO[C@H]2CC[C@H](CN3CCN(c4ccc5c(c4F)n(C)c(=O)n5C4CCC(=O)NC4=O)CC3)CC2)ccc1Nc1ncc2ccc(=O)n(C3CCCC3)c2n1` (some centres unmarked) [I-827], the “CDK2 degradation 14 h: Average Dmax %” value was “A (A (>75% o))” and the DC50 was less than 100 nM.
The matching figures for `Cc1cc(S(=O)(=O)N[C@@H](C)CO[C@H]2CC[C@H](CN3CCN(c4ccc5c(c4F)n(C)c(=O)n5C4CCC(=O)NC4=O)CC3)CC2)ccc1Nc1ncc2ccc(=O)n(C3CCCC3)c2n1` (some centres unmarked) [I-828]: “A (A (>75% o))” and less than 100 nM.
With `Cc1cc(S(=O)(=O)N2CCC(N3CCC(F)(CN(C)c4ccc5c(c4F)n(C)c(=O)n5C4CCC(=O)NC4=O)CC3)CC2)ccc1Nc1ncc2ccc(=O)n(C3CCCC3)c2n1` (centres unmarked) [I-829], the “CDK2 degradation 14 h: Average Dmax %” value is recorded as “D (D (<25%))” and the “CDK2 degradation 14 h: Mean external-Abs DC50 (nM)” value is reported as “E”.
Take `Cc1cc(S(=O)(=O)NC2CC(N3CCN(CC4CCN(c5ccc6c(c5F)n(C)c(=O)n6C5CCC(=O)NC5=O)CC4)CC3)C2)ccc1Nc1ncc(C(F)(F)F)c(N2CCCC(C)(O)C2)n1` (centres unmarked) [I-830]: the “CDK2 degradation 14 h: Average Dmax %” value is on record as “A (A (>75% o))” and the DC50 is less than 100 nM.
As to `Cc1cc(S(=O)(=O)NC2CC(N3CCN(CC4CCN(c5ccc6c(c5F)n(C)c(=O)n6C5CCC(=O)NC5=O)CC4)CC3)C2)ccc1Nc1ncc(C(F)(F)F)c(N2CCCC(C)(O)C2)n1` (centres unmarked) [I-831], the “CDK2 degradation 14 h: Average Dmax %” value is reported as “A (A (>75% o))” and the DC50 is less than 100 nM.
The corresponding values for `Cc1cc(S(=O)(=O)NC2CC(N3CCN(CC4CCN(c5ccc6c(c5F)n(C)c(=O)n6C5CCC(=O)NC5=O)CC4)CC3)C2)ccc1Nc1ncc2cc(Cl)c(=O)n(C3CCCC3)c2n1` (centres unmarked) [I-832] are “A (A (>75% o))” and less than 100 nM.
With `Cc1cc(S(=O)(=O)NC2CC(N3CCN(CC4CCN(c5cccc6c5n(C)c(=O)n6C5CCC(=O)NC5=O)CC4)CC3)C2)ccc1Nc1ncc(C(F)(F)F)c(N2CCCC(C)(O)C2)n1` (centres unmarked) [I-834], the “CDK2 degradation 14 h: Average Dmax %” value is “A (A (>75% o))” and the DC50 is less than 100 nM.
The matching figures for `Cc1cc(S(=O)(=O)C2CC3(CCN(CC4CCN(c5ccc6c(c5F)n(C)c(=O)n6C5CCC(=O)NC5=O)CC4)CC3)C2)ccc1Nc1nc(N2CCCC(C)(O)C2)c2c(ccn2C)n1` (centres unmarked) [I-835]: “D (D (<25%))” and more than 1000 nM.
The matching figures for `Cc1cc(S(=O)(=O)N2CC3(CCN(CC4CCN(c5ccc6c(c5F)n(C)c(=O)n6C5CCC(=O)NC5=O)CC4)CC3(F)F)C2)ccc1Nc1ncc2ccc(=O)n(C3CCCC3)c2n1` (centres unmarked) [I-836]: “B (B (>50% -75%))” and 100 to 500 nM.
The matching figures for `Cc1cc(S(=O)(=O)C2CC3(CCN(CC4CCN(c5ccc6c(c5F)n(C)c(=O)n6C5CCC(=O)NC5=O)CC4)CC3)C2)ccc1Nc1ncc2cc(Cl)c(=O)n(C(C)C(C)(C)O)c2n1` (centres unmarked) [I-837]: “D (D (<25%))” and more than 1000 nM.
For `Cc1cc(S(=O)(=O)C2CC3(CCN(CC4CCN(c5cccc6c5n(C)c(=O)n6C5CCC(=O)NC5=O)CC4)CC3)C2)ccc1Nc1ncc2cc(Cl)c(=O)n(C(C)C(C)(C)O)c2n1` (centres unmarked) [I-838], the “CDK2 degradation 14 h: Average Dmax %” value is given as “D (D (<25%))” and the DC50 is more than 1000 nM.
The corresponding values for `Cc1cc(S(=O)(=O)C2CC3(CCN(CC4CCN(c5ccc6c(c5F)n(C)c(=O)n6C5CCC(=O)NC5=O)CC4)CC3)C2)ccc1Nc1ncc(C2CC2)c(N2CCCC(C)(O)C2)n1` (centres unmarked) [I-839] are “D (D (<25%))” and more than 1000 nM.
The corresponding values for `Cc1cc(S(=O)(=O)C2CC3(CCN(CC4CCN(c5ccc6c(c5F)n(C)c(=O)n6C5CCC(=O)NC5=O)CC4)CC3)C2)ccc1Nc1ncc(C(F)(F)F)c(N2CCC(C(C)(C)O)C2)n1` (centres unmarked) [I-840] are “B (B (>50% -75%))” and less than 100 nM.
On to `Cc1cc(S(=O)(=O)C2CC3(CCN(CC4CCN(c5cccc6c5n(C)c(=O)n6C5CCC(=O)NC5=O)CC4)CC3)C2)ccc1Nc1ncc(C(F)(F)F)c(N2CCC(C(C)(C)O)C2)n1` (centres unmarked) [I-841], for which the “CDK2 degradation 14 h: Average Dmax %” value is given as “A (A (>75% o))” and the DC50 was less than 100 nM.
Take `Cc1cc(S(=O)(=O)C2CC3(CCN(CC4CCN(c5cccc6c5n(C)c(=O)n6C5CCC(=O)NC5=O)CC4)CC3)C2)ccc1Nc1ncc(C(F)(F)F)c(N2CCC(C(C)(C)O)C2)n1` (centres unmarked) [I-842]: the “CDK2 degradation 14 h: Average Dmax %” value is reported as “A (A (>75% o))” and the DC50 was less than 100 nM.
Turning to `Cc1cc(S(=O)(=O)NC(C)COC2CCC(CN3CCN(c4ccc5c(c4F)n(C)c(=O)n5C4CCC(=O)NC4=O)CC3)CC2)ccc1Nc1ncc2cc(Cl)c(=O)n(C(C)C(C)(C)O)c2n1` (centres unmarked) [I-843], the “CDK2 degradation 14 h: Average Dmax %” value is “D (D (<25%))” and the DC50 was more than 1000 nM.
